Laboratory results published in article PMC8445441, “Elucidating the mechanism by which synthetic helper peptides sensitize Pseudomonas aeruginosa to multiple antibiotics” (PLoS Pathogens, 2021).
Where two headings read alike, the source gives them in different places. Values belong to the molecule of their own block, whether it stands above or below them.

How the values were obtained:
P. aeruginosa AUMC-Pa-2 = conditions: strain AUMC-Pa-2; antibiotic + D-11 (MICb/MICbc 64/4)
In short: (§1)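 CLSI broth dilution; MHB; ~1 × 10^6 CFU/mL suspension mixed equal volume with drug; 37 °C for 18 h; visual read; triplicate. Broth sometimes supplemented with PG, PE, PC, CL, LPS, MgCl2, CaCl2 or PAβN.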

P. aeruginosa AUMC-Pa-1 = conditions: strain AUMC-Pa-1; antibiotic + D-11 (MICb/MICbc 128/4)
In short: as §1

P. aeruginosa ATCC27853 = experiment: microbe, parasite or virus in culture; parameters: MICa: MIC of the antibiotic / MICac: MIC of the antibiotic in the combination: unit not given beside the values; conditions: for MIC: Pseudomonas aeruginosa, ATCC27853, 18 h, read-out: MICa: MIC of the antibiotic; for FICI / MICac: MIC of the antibiotic in the combination: strain ATCC27853; for FICI: antibiotic + D-11 (MICb/MICbc 32/4); for MICac: MIC of the antibiotic in the combination: with D-11 at MICbc 4, unit not given
In short: as §1

P. aeruginosa PA14 = experiment: microbe, parasite or virus in culture; parameters: MICa: MIC of the antibiotic / MICac: MIC of the antibiotic in the combination: unit not given beside the values; conditions: for FICI: antibiotic + D-11 (MICb/MICbc 128/4); for MICac: MIC of the antibiotic in the combination: with D-11 at MICbc 4
In short: as §1

P. aeruginosa NR-31041 = experiment: microbe, parasite or virus in culture; parameters: MICa: MIC of the antibiotic / MICac: MIC of the antibiotic in the combination: unit not given beside the values; conditions: for MIC: Pseudomonas aeruginosa, NR31041, 18 h, read-out: MICa: MIC of the antibiotic; for FICI / MICac: MIC of the antibiotic in the combination: strain NR-31041; for FICI: antibiotic + D-11 (MICb/MICbc 64/4); for MICac: MIC of the antibiotic in the combination: with D-11 at MICbc 4, unit not given
In short: as §1

P. aeruginosa NR-31040 = experiment: microbe, parasite or virus in culture; parameters: MICa: MIC of the antibiotic / MICac: MIC of the antibiotic in the combination: unit not given beside the values; conditions: for MIC: Pseudomonas aeruginosa, NR31040, 18 h, read-out: MICa: MIC of the antibiotic; for FICI / MICac: MIC of the antibiotic in the combination: strain NR-31040; for FICI: antibiotic + D-11 (MICb/MICbc 128/4); for MICac: MIC of the antibiotic in the combination: with D-11 at MICbc 4, unit not given
In short: as §1

P. aeruginosa PAK = experiment: microbe, parasite or virus in culture; parameters: MICa: MIC of the antibiotic / MICac: MIC of the antibiotic in the combination: unit not given beside the values; conditions: for MIC: Pseudomonas aeruginosa, 18 h, read-out: MICa: MIC of the antibiotic; for FICI / MICac: MIC of the antibiotic in the combination: strain PAK; for FICI: antibiotic + D-11 (MICb/MICbc 64/4); for MICac: MIC of the antibiotic in the combination: with D-11 at MICbc 4, unit not given
In short: as §1

P. aeruginosa PAO1 = experiment: microbe, parasite or virus in culture; conditions: PAO1; for MIC: Pseudomonas aeruginosa, PAO1, 18 h, read-out: MICa: the MIC of antibiotics, S3 Table
In short: as §1

P. aeruginosa AUMC-Pa-5 = experiment: microbe, parasite or virus in culture; conditions: for FICI: antibiotic + D-11 (MICb/MICbc 64/4); for MICac: MIC of the antibiotic in the combination: with D-11 at MICbc 4
In short: as §1

P. aeruginosa AUMC-Pa-6 = experiment: microbe, parasite or virus in culture; conditions: for FICI: antibiotic + D-11 (MICb/MICbc 64/4); for MICac: MIC of the antibiotic in the combination: with D-11 at MICbc 4
In short: as §1

P. aeruginosa AUMC-Pa-3 = experiment: microbe, parasite or virus in culture; conditions: for MIC: Pseudomonas aeruginosa, AUMCPA3, 18 h, read-out: MICa: MIC of the antibiotic; for FICI / MICac: MIC of the antibiotic in the combination: strain AUMC-Pa-3; for FICI: antibiotic + D-11 (MICb/MICbc 128/4); for MICac: MIC of the antibiotic in the combination: with D-11 at MICbc 4, unit not given
In short: as §1

P. aeruginosa AUMC-Pa-4 = experiment: microbe, parasite or virus in culture; conditions: for MIC: Pseudomonas aeruginosa, AUMCPA4, 18 h, read-out: MICa: MIC of the antibiotic; for FICI / MICac: MIC of the antibiotic in the combination: strain AUMC-Pa-4; for FICI: antibiotic + D-11 (MICb/MICbc 128/4); for MICac: MIC of the antibiotic in the combination: with D-11 at MICbc 4, unit not given
In short: as §1

[1] = test system: clinical P. aeruginosa isolates; experiment: microbe, parasite or virus in culture; conditions: Pseudomonas aeruginosa, 18 h, antibiotic alone
In short: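 MIC is the lowest drug concentration showing no visible growth after 18 h at 37 °C. Two-fold dilutions in MHB were combined with an equal volume of bacterial suspension (about 1 × 10^6 CFU/mL), following CLSI broth microdilution, in triplicate.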

P. aeruginosa HM-214 = conditions: strain HM-214; antibiotic + D-11 (MICb/MICbc 128/4)
In short: as §1

[2] = S3 Table, antibiotic + 2 μM D-11
[3] = strain AUMC-Pa-5, unit not given
[4] = strain AUMC-Pa-6, unit not given
[5] = read-out: Antibiotic sensibility (MIC) of clinical P. aeruginosa isolate AUMC-Pa-1, strain AUMC-Pa-1
[6] = read-out: Antibiotic sensibility (MIC) of clinical P. aeruginosa isolate AUMC-Pa-2, strain AUMC-Pa-2
[7] = read-out: Antibiotic sensibility (MIC) of clinical P. aeruginosa isolate AUMC-Pa-3, strain AUMC-Pa-3
[8] = read-out: Antibiotic sensibility (MIC) of clinical P. aeruginosa isolate AUMC-Pa-4, strain AUMC-Pa-4
[9] = read-out: Antibiotic sensibility (MIC) of clinical P. aeruginosa isolate AUMC-Pa-5, strain AUMC-Pa-5
[10] = read-out: Antibiotic sensibility (MIC) of clinical P. aeruginosa isolate AUMC-Pa-6, strain AUMC-Pa-6
[11] = read-out: Antibiotic sensibility (MIC) of clinical P. aeruginosa isolate HM-214, strain HM-214
[12] = read-out: Antibiotic sensibility (MIC) of clinical P. aeruginosa isolate NR-31040, strain NR-31040
[13] = read-out: Antibiotic sensibility (MIC) of clinical P. aeruginosa isolate NR-31041, strain NR-31041

MIC (P. aeruginosa ATCC27853): > 128 µM | MICac: MIC of the antibiotic in the combination (P. aeruginosa ATCC27853): 2 | MIC (P. aeruginosa PA14; Pseudomonas aeruginosa, PA14, 18 h, read-out: MICa: MIC of the antibiotic): > 128 µM | MICac: MIC of the antibiotic in the combination (P. aeruginosa PA14; strain PA14, unit not given): 8 | MIC (P. aeruginosa NR-31041): > 128 µM | MICac: MIC of the antibiotic in the combination (P. aeruginosa NR-31041): 4 | MIC (P. aeruginosa NR-31040): > 128 µM | MICac: MIC of the antibiotic in the combination (P. aeruginosa NR-31040): 64 | MIC (P. aeruginosa PAK): > 128 µM | MICac: MIC of the antibiotic in the combination (P. aeruginosa PAK): 2 | reduction of the MICs (P. aeruginosa PAO1; in the presence of 4 μM of D-11): 512 fold | MIC (P. aeruginosa PAO1; antibiotic alone): > 128 µM | MICac: the MIC for the antibiotic in the combination (P. aeruginosa PAO1; S3 Table, with 2 μM D-11): 0.5 µM | MICac: the MIC for the antibiotic in the combination (P. aeruginosa PAO1; S3 Table, with 4 μM D-11): 0.5 µM | MIC (P. aeruginosa AUMC-Pa-5; Pseudomonas aeruginosa, AUMCPA5, 18 h, read-out: MICa: MIC of the antibiotic): > 128 µM | MICac: MIC of the antibiotic in the combination (P. aeruginosa AUMC-Pa-5; [3]): >128/128 | MIC (P. aeruginosa AUMC-Pa-6; Pseudomonas aeruginosa, AUMCPA6, 18 h, read-out: MICa: MIC of the antibiotic): > 128 µM | MICac: MIC of the antibiotic in the combination (P. aeruginosa AUMC-Pa-6; [4]): >128/128 | MIC (P. aeruginosa AUMC-Pa-3): > 128 µM | MICac: MIC of the antibiotic in the combination (P. aeruginosa AUMC-Pa-3): 0.5 | MIC (P. aeruginosa AUMC-Pa-4): > 128 µM | MICac: MIC of the antibiotic in the combination (P. aeruginosa AUMC-Pa-4): >128/128 | MIC [1, 5]: > 128 µM | MIC [1, 6]: > 128 µM | MIC [1, 7]: > 128 µM | MIC [1, 8]: > 128 µM | MIC [1, 9]: > 128 µM | MIC [1, 10]: > 128 µM | MIC [1, 11]: > 128 µM | MIC [1, 12]: > 128 µM | MIC [1, 13]: > 128 µM
Structure (SMILES): CO[C@@H]1[C@@H](OC(N)=O)[C@@H](O)[C@H](Oc2ccc3c(O)c(NC(=O)c4ccc(O)c(CC=C(C)C)c4)c(=O)oc3c2C)OC1(C)C [Novobiocin]
FICI (P. aeruginosa AUMC-Pa-2): 0.070 | FICI (P. aeruginosa AUMC-Pa-1): 0.035 | FICI (P. aeruginosa ATCC27853): 0.133 | FICI (P. aeruginosa PA14; strain PA14): 0.063 | FICI (P. aeruginosa NR-31041): 0.078 | FICI (P. aeruginosa NR-31040): 0.281 | FICI (P. aeruginosa PAK): 0.070 | FICI (P. aeruginosa PAO1; [2]): 0.064 | FICI (P. aeruginosa AUMC-Pa-5; strain AUMC-Pa-5): 0.563 | FICI (P. aeruginosa AUMC-Pa-6; strain AUMC-Pa-6): 0.563 | FICI (P. aeruginosa AUMC-Pa-3): 0.033 | FICI (P. aeruginosa AUMC-Pa-4): 0.531 | FICI (P. aeruginosa HM-214): 0.531

MIC (P. aeruginosa ATCC27853): 16 µM | MICac: MIC of the antibiotic in the combination (P. aeruginosa ATCC27853): 0.5 | MICa: MIC of the antibiotic (P. aeruginosa PA14; strain PA14, antibiotic alone, unit not given): 16 | MICac: MIC of the antibiotic in the combination (P. aeruginosa PA14; strain PA14, unit not given): 1 | MIC (P. aeruginosa NR-31041): 16 µM | MICac: MIC of the antibiotic in the combination (P. aeruginosa NR-31041): 0.5 | MIC (P. aeruginosa NR-31040): 16 µM | MICac: MIC of the antibiotic in the combination (P. aeruginosa NR-31040): 0.125 | MIC (P. aeruginosa PAK): 16 µM | MICac: MIC of the antibiotic in the combination (P. aeruginosa PAK): 0.5 | MIC (P. aeruginosa PAO1; antibiotic alone): 16 µM | MICac: the MIC for the antibiotic in the combination (P. aeruginosa PAO1; S3 Table, with 2 μM D-11): 0.5 µM | MICac: the MIC for the antibiotic in the combination (P. aeruginosa PAO1; S3 Table, with 4 μM D-11): 0.25 µM | MICa: the MIC of antibiotics (P. aeruginosa PAO1; S3 Table, antibiotic alone): 16 µM | MICa: MIC of the antibiotic (P. aeruginosa AUMC-Pa-5; strain AUMC-Pa-5, antibiotic alone, unit not given): 8 | MICac: MIC of the antibiotic in the combination (P. aeruginosa AUMC-Pa-5; [3]): 2 | MICa: MIC of the antibiotic (P. aeruginosa AUMC-Pa-6; strain AUMC-Pa-6, antibiotic alone, unit not given): 16 | MICac: MIC of the antibiotic in the combination (P. aeruginosa AUMC-Pa-6; [4]): 1 | MIC (P. aeruginosa AUMC-Pa-3): 16 µM | MICac: MIC of the antibiotic in the combination (P. aeruginosa AUMC-Pa-3): 0.5 | MIC (P. aeruginosa AUMC-Pa-4): 16 µM | MICac: MIC of the antibiotic in the combination (P. aeruginosa AUMC-Pa-4): 0.5 | MIC [1, 5]: 32 µM | MIC [1, 6]: 8 µM | MIC [1, 7]: 16 µM | MIC [1, 8]: 16 µM | MIC [1, 9]: 8 µM | MIC [1, 10]: 16 µM | MIC [1, 11]: 16 µM | MIC [1, 12]: 16 µM | MIC [1, 13]: 16 µM
Structure (SMILES): C[C@H]1c2cccc(O)c2C(=O)C2=C(O)[C@]3(O)C(=O)C(C(N)=O)=C(O)[C@@H](N(C)C)[C@@H]3[C@@H](O)[C@@H]21 [Doxycycline]
FICI (P. aeruginosa AUMC-Pa-2): 0.188 | FICI (P. aeruginosa AUMC-Pa-1): 0.063 | FICI (P. aeruginosa ATCC27853): 0.156 | FICI (P. aeruginosa PA14; strain PA14): 0.094 | FICI (P. aeruginosa NR-31041): 0.094 | FICI (P. aeruginosa NR-31040): 0.039 | FICI (P. aeruginosa PAK): 0.094 | FICI (P. aeruginosa PAO1; [2]): 0.094 | FICI (P. aeruginosa PAO1; S3 Table, antibiotic + 4 μM D-11): 0.141 | FICI (P. aeruginosa AUMC-Pa-5; strain AUMC-Pa-5): 0.313 | FICI (P. aeruginosa AUMC-Pa-6; strain AUMC-Pa-6): 0.125 | FICI (P. aeruginosa AUMC-Pa-3): 0.063 | FICI (P. aeruginosa AUMC-Pa-4): 0.063 | FICI (P. aeruginosa HM-214): 0.063
